From ChEMBL document CHEMBL4482306, “Methods for inhibiting fascin” (2014)
Calls of active or inactive are those of the source. The rule behind the calls is not given here.

Columns and labels:
4T1 [1] = experiment: Antitumor activity against mouse 4T1 cells implanted in Balb/c mouse mouse assessed as inhibition of breast tumor metastasis at 30 mg/kg dosed daily for 2 weeks starting 7 days post tumor cell implantation and measured on day 28 by 6-thioguanine clonogenic assay; type: functional, organism-based
4T1 [2] = experiment: Antimigratory activity against mouse 4T1 cells assessed as inhibition of cell migration incubated for 6 hrs by crystal violet staining based Boyden-Chamber cell migration assay; type: functional; details: 4T1, 6 h
4T1 [3] = experiment: Antitumor activity against mouse 4T1 cells implanted in Balb/c mouse mouse assessed as inhibition of breast tumor metastasis at 8 mg/kg dosed daily for 2 weeks starting 7 days post tumor cell implantation and measured on day 28 by 6-thioguanine clonogenic assay; type: functional, organism-based
Fascin (Homo sapiens) = Fascin (Homo sapiens) (UniProt Q16658); experiment: Inhibition of GST-tagged recombinant human fascin 1 expressed in Escherichia coli BL21/DE3 assessed as average fiber thickness at 30 uM pre-incubated for 30 mins before polymerized actin addition and followed by Alexa fluro 488 phalloidin addition and measured after 1 hr under dark condition (reference value: 0.39 a.u)

IC50 (4T1 [2]) [µM]	SMILES	also measured
> 30	Cc1ccc(S(=O)(=O)Nc2cc(Sc3nc[nH]n3)c(O)c3ccccc23)c(C)c1	
> 30	O=C1C(Sc2nc[nH]n2)=C/C(=N/S(=O)(=O)c2ccccc2)c2ccccc21	
> 20	CCOc1ccc(S(=O)(=O)Nc2cc(Sc3nc[nH]n3)c(O)c3ccccc23)cc1	

More lines, now with the values behind:

SMILES	IC50 (4T1 [2]) [µM]	also measured
COc1ccc(S(=O)(=O)Nc2cc(Sc3nc[nH]n3)c(O)c3ccccc23)cc1		inhibition (4T1 [1]): Active
O=[N+]([O-])c1ccc(Cl)c(S(=O)(=O)Nc2nc3ccc(Cl)cc3s2)c1		inhibition (4T1 [3]): Active; Activity (Fascin (Homo sapiens)): 0.35 a.u.
c1ccc(Nc2nc(-c3ccccc3)[n+](-c3ccccc3)s2)cc1	> 50	
